Measured values: US6894074B2, “Synergistic insecticidal mixtures” (Bayer Aktiengesellschaft, priority 1999, dated 2005)

Experiments:
Assay type in all cases: in vivo
white fly Bemisia tabaci = test: Bemisia test: infested cotton plants dipped into preparation of active compound, kill in %; conditions: 4 ppm active compound
From the text: The expected activity for a given combinatin of two active compounds can be calculated as follows (according to S. R. Colby, Weeds 15 (1967), 20-22):
If the actual activity exceeds the calculated value, then the activity of the combination is superadditive, i.e. a synergistic effect exists. In this case, the efficacy which was actually observed must be greater than the value for the expected efficacy (E) calculated from the abovementioned formula.
To produce a suitable preparation of active compound, 1 part by weight of active compound is mixed with the stated amounts of solvent and emulsifier, and the concentrate is diluted with water to the desired concentrations.
Cotton plants (Gossypium hirsutum) which are infested by eggs, larvae and puparia of the white fly Bemisia tabaci are dipped into a preparation of active compound of the desired concentration.
After the desired period of time, the kill in % is determined. 100% means that all animals have been killed; 0% means that none of the animals have been killed.

Aphis gossypii = test: Field spray test against Aphis gossypii on courgettes, efficacy by the method of Abbott; conditions: 4 spray applications
Experimental: The spray liquor (1000 l of water/ha) comprising the active compound(s) was applied using a knapsack sprayer operated with compressed air. 4 spray applications were carried out at intervals of 9-13 days. The plot size was 12 m^2. The effect on the aphids was determined 7, 16 and 29 days after the last application (start of the infestation after the 2nd treatment) by counting the animals which were still alive/leaf (10 leaves/plot) and calculating the efficacy by the method of Abbott.

Bemisia tabaci = test: Field spray test against Bemisia tabaci on cotton, efficacy by the method of Abbott; conditions: larvae on cotton
Experimental: The spray liquor (1000 l of water/ha) comprising the active compound(s) was applied using a knapsack sprayer operated by pressurized air. The plot size was 19 m^2. The effect was evaluated 7, 10 and 14 days after the application by determining the number of larvae still alive on the leaf undersurface (10 leaves/plot) and calculating the efficacy by the method of Abbott.

Structure (SMILES) | Kill in % after 10 d (white fly Bemisia tabaci) | Efficacy % Abbott (Aphis gossypii; 0.015 % active compound, 7 days after the last treatment) | Efficacy % Abbott (Aphis gossypii; 0.015 % active compound, 16 days after the last treatment) | Efficacy % Abbott (Aphis gossypii; 0.015 % active compound, 29 days after the last treatment) | Efficacy % Abbott (Bemisia tabaci; 0.0096 kg of active compound/ha, 7 days after treatment) | Efficacy % Abbott (Bemisia tabaci; 0.0096 kg of active compound/ha, 10 days after treatment) | Efficacy % Abbott (Bemisia tabaci; 0.0096 kg of active compound/ha, 14 days after treatment) | Efficacy % Abbott (Aphis gossypii; 0.0144 % active compound, 7 days after the last treatment) | Efficacy % Abbott (Aphis gossypii; 0.0144 % active compound, 16 days after the last treatment) | Efficacy % Abbott (Aphis gossypii; 0.0144 % active compound, 29 days after the last treatment) | Efficacy % Abbott (Bemisia tabaci; 0.096 kg of active compound/ha, 7 days after treatment) | Efficacy % Abbott (Bemisia tabaci; 0.096 kg of active compound/ha, 10 days after treatment) | Efficacy % Abbott (Bemisia tabaci; 0.096 kg of active compound/ha, 14 days after treatment)
O=[N+]([O-])/N=C1\NCCN1Cc1ccc(Cl)nc1 [Ex. (IIa)] | 0% | 100% | 89% | 33% | – | – | – | – | – | – | – | – | –
Cc1cc(C)c(C2=C(OC(=O)CC(C)(C)C)C3(CCCC3)OC2=O)c(C)c1 [Ex. (Ia)] | 0% | – | – | – | 49% | 87% | 78% | 0% | 0% | 0% | – | – | –
N#C/N=C1\SCCN1Cc1ccc(Cl)nc1 [IIk] | – | – | – | – | – | – | – | – | – | – | 86% | 61% | 68%
